Columns and labels:
Assay in all cases: relative viability (nuclei count vs DMSO), 5 days (fraction); higher = more cells survive
[1] = compound: CC1(C)CCC(CN2CCN(c3ccc(C(=O)NS(=O)(=O)c4ccc(NCC5CCOCC5)c([N+](=O)[O-])c4)c(Oc4cnc5[nH]ccc5c4)c3)CC2)=C(c2ccc(Cl)cc2)C1 [Venetoclax] + CC1(C)CCC(c2ccc(Cl)cc2)=C(CN2CCN(c3ccc(C(=O)NS(=O)(=O)c4ccc(N[C@H](CCN5CCOCC5)CSc5ccccc5)c(S(=O)(=O)C(F)(F)F)c4)cc3)CC2)C1 [Navitoclax] (partner 0.5 µM)
Method in brief: (§1)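 Values are medians from duplicate plates. Each reflects relative viability, defined as the nuclei count of treated wells over that of vehicle wells. Lung cancer cell lines in 1536-well plates were pin-tool dosed one day after seeding with one drug alone or with a fixed anchor-drug dose plus five library-drug doses (not always all listed) in √10 steps, then fixed, stained and imaged at 4× after 5 days.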

[2] = compound: Cn1cnc2c(F)c(Nc3ccc(Br)cc3Cl)c(C(=O)NOCCO)cc21 [Selumetinib] + N=C(N)NC(=N)NCCc1ccccc1 [Phenformin] (partner 250 µM)
Method in brief: as §1

[3] = compound: Cn1cnc2c(F)c(Nc3ccc(Br)cc3Cl)c(C(=O)NOCCO)cc21 [Selumetinib] + Cc1cc(Nc2cc(N3CCN(C)CC3)nc(Sc3ccc(NC(=O)C4CC4)cc3)n2)n[nH]1 [Tozasertib] (partner 0.1 µM)
Method in brief: as §1

[4] = compound: Cn1cnc2c(F)c(Nc3ccc(Br)cc3Cl)c(C(=O)NOCCO)cc21 [Selumetinib] + Nc1ncn([C@H]2C[C@H](O)[C@@H](CO)O2)c(=O)n1 [Decitabine] (partner 2 µM)
Method in brief: as §1

UMC-11 showed a relative viability ([1]; first compound 0.01 µM) of 0.307, a relative viability ([1]; first compound 0.03162 µM) of 0.31 and a relative viability ([1]; first compound 0.1 µM) of 0.255. The relative viability ([1]; first compound 0.3162 µM) was 0.284, the relative viability ([1]; first compound 1 µM) was 0.249 and the relative viability ([2]; first compound 0.02 µM) was 0.301. For the same cell line, the relative viability ([2]; first compound 0.06325 µM) was 0.284, the relative viability ([2]; first compound 0.2 µM) was 0.307 and the relative viability ([2]; first compound 0.6325 µM) was 0.323. It also gave a relative viability ([3]; first compound 0.02 µM) of 0.215, a relative viability ([3]; first compound 0.06325 µM) of 0.203 and a relative viability ([3]; first compound 0.2 µM) of 0.205. For the same cell line, the relative viability ([3]; first compound 0.6325 µM) was 0.199, the relative viability ([4]; first compound 0.02 µM) was 0.653 and the relative viability ([4]; first compound 0.06325 µM) was 0.624. For the same cell line, the relative viability ([4]; first compound 0.2 µM) was 0.619 and the relative viability ([4]; first compound 0.6325 µM) was 0.643.

Reference: the supplement of paper PMC10307832
